Laboratory results as given in PMC4961458 (eLife, 2016).

Columns and labels:
[1] = target: T1, GR (Homo sapiens, UniProt P04150); test: GR transcriptional reporter assay, antagonist mode (CV1 cells); type: cell-based
T1 sequence (P04150 1-777): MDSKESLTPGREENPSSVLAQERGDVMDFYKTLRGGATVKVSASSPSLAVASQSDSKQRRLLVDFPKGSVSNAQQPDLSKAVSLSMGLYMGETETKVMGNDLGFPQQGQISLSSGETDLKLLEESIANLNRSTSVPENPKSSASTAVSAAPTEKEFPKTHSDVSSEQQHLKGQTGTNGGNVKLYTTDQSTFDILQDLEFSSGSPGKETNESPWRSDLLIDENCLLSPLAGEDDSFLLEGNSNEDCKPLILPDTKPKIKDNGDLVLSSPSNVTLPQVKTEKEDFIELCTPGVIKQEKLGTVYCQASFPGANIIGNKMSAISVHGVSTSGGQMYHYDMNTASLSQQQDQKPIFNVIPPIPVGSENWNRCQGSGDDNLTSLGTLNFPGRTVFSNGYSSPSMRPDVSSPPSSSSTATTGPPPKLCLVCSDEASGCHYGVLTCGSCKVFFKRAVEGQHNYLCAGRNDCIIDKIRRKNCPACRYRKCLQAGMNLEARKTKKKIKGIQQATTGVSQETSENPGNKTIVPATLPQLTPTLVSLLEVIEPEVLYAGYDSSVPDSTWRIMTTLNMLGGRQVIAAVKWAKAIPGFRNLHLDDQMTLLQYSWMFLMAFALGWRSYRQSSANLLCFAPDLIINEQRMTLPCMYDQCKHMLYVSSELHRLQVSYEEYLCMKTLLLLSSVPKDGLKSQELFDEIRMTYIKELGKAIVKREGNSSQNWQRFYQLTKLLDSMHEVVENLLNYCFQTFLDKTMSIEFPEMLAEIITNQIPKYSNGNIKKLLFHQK
Procedure: CV1 cells were maintained in MEM supplemented with 10% FBS. Transcriptional assays were performed by seeding 12 mL of cells at a density of 250,000 cells/mL into a T-75 cell culture flask in MEM supplemented with 5% charcoal-stripped serum and allowed to attach overnight. Cells were transiently transfected using FuGENE 6 (Roche Applied Science). […] Transfected cells were incubated overnight then split into four 96-well tissue culture plates and incubated for 4 hr followed by compound addition. […] The final agonist concentration used in the antagonist assays was 10 nM.

[2] = target: T2, PR-A (Homo sapiens, UniProt P06401); test: PR-A transcriptional reporter assay, antagonist mode (HEPG2 cells)
T2 sequence (P06401 1-769 isoform P06401-2): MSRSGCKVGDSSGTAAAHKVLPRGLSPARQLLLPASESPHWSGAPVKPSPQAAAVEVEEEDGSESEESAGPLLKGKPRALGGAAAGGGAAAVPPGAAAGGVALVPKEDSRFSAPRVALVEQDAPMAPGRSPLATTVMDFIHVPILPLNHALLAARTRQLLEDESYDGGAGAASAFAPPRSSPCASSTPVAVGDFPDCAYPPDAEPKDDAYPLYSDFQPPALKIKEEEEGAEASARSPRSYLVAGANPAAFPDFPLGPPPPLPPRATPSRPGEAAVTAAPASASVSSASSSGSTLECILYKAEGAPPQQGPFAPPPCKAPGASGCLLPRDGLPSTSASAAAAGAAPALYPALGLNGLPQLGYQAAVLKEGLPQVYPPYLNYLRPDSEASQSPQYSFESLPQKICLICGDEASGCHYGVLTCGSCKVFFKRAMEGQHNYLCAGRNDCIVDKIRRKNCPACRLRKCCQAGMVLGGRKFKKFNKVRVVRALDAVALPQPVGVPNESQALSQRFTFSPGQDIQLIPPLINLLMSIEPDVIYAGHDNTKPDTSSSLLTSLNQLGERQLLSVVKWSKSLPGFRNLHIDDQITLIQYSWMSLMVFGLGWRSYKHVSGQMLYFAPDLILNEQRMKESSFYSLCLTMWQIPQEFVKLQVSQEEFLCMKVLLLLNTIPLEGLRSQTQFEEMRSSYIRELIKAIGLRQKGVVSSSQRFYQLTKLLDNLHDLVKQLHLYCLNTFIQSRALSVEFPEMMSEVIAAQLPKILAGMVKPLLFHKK

[3] = target: ERα (Homo sapiens, UniProt P03372); test: MCF7 3X ERE-LUC transcriptional reporter assay (ERα antagonist); conditions: 0.1 nM 17β-estradiol, 24 hr
Chain of ERα (P03372 whole entry): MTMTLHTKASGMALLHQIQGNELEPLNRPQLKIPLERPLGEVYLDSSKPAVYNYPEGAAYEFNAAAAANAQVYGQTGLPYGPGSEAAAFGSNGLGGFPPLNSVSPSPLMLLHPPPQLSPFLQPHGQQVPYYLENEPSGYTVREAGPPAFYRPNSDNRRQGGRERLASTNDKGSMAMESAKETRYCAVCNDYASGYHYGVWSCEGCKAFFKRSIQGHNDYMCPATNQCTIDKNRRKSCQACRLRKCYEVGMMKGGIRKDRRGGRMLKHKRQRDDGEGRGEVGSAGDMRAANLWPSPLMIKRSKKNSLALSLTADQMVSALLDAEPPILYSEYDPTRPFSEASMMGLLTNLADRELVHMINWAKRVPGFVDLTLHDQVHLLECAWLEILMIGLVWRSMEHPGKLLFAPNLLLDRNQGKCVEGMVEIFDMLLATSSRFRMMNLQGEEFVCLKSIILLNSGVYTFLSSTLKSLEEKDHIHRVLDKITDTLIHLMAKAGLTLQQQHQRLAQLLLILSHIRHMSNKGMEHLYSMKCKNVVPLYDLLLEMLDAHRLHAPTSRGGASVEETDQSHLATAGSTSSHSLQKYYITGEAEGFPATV

[4] = Fulvestrant plasma concentrations in mice
[5] = target: AR (Homo sapiens, UniProt P10275); test: AR competitive radioligand binding assay (MDA-MB-453 cell lysate); conditions: 0.6 nM 3H-R1881
Chain of AR (P10275 whole entry): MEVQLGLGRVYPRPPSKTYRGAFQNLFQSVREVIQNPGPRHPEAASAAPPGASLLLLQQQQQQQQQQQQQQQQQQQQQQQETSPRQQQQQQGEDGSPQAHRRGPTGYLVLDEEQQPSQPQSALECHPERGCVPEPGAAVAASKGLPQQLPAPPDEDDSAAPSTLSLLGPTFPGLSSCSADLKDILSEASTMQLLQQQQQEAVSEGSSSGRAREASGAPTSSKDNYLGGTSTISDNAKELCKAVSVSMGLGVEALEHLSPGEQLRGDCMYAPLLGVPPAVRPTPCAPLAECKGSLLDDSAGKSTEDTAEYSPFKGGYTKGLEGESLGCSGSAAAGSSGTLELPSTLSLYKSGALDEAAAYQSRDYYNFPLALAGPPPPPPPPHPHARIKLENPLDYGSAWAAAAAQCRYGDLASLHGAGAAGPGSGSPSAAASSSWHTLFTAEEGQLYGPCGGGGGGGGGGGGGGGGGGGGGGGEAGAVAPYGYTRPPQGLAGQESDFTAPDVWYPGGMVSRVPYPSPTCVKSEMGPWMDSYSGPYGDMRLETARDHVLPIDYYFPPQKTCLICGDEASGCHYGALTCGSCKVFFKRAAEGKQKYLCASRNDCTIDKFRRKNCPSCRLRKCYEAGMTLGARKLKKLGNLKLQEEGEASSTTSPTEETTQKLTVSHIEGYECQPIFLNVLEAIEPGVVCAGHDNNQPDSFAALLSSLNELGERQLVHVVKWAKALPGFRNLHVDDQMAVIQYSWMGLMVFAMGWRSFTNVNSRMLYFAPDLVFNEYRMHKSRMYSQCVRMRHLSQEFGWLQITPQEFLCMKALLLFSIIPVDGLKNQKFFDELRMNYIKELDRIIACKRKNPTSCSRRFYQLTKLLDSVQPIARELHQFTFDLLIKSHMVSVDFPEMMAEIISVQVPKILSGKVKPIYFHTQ
Procedure: After reaching 90% confluence, cells were harvested, resuspended in TEGM (10 mM TrisHCl pH 7.2, 1 mM EDTA, 10% glycerol, 1 mM β-mercaptoethanol, 10 mM Sodium Molybdate), and frozen in liquid nitrogen in 10 mL aliquots containing 2 × 10^7 cells/mL. […] Reactions were incubated at 4°C overnight. Bound and unbound ligands were separated by ultrafiltration using a Unifilter-96 GF/C filter plate (Perkin Elmer). Bound ^3H-R1881 was eluted in 30 μL/well Microscint-20 and quantified using a scintillation counter (Top Count).

[6] = system: T47D ER.WT cells; test: Cell viability, T47D ER.WT cells; type: cell-based; conditions: Homo sapiens, +E2
Procedure: In the presence of 0.1 nM estrogen however, much of this competitive advantage is lost, with WT cells representing 40% ± 0.2% of the total population at day 15 (Figure 7C,D).
Figure 7. […] 4 images per condition were quantified.

[7] = system: ER; design: method as in Dickler et al., 2015; conditions: postmenopausal women with ER+ locally advanced or metastatic breast cancer, patients with FES-PET scans; ref Dickler et al., 2015; cited from earlier work
[8] = system: MDA-MB-231, an ER negative human breast cancer tumor model; test: MDA-MB-231 xenograft efficacy; type: in vivo, mice; conditions: GDC-0810 100 mg/kg/day p.o., 29 days

Question: For `CC/C(=C(\c1ccc(O)cc1)c1ccc(OCCN(C)C)cc1)c1ccccc1` [4-OH Tam, 4-hydroxytamoxifen], which IC50 [1] is on record?
Answer: 1470 ± 1180 nM

Question: What about the IC50 [2] of the same compound?
Answer: 12000 ± 4500 nM

Question: Which “Transcription 3X ERE-LUC Emax” value [3] does the source give for `C[C@]12CC[C@@H]3c4ccc(O)cc4C[C@@H](CCCCCCCCC[S+]([O-])CCCC(F)(F)C(F)(F)F)[C@H]3[C@@H]1CC[C@@H]2O` (some centres unmarked) [Fulvestrant] here?
Answer: 4.1 ± 2.6 % E2

Question: And the “Plasma Conc Mean” value ([4]; 50 mg/kg Days 1, 3 & 8, 25 mg/kg Days 15 & 22, Day 21, Time 0 hr)?
Answer: 15 ng/mL

Question: What about the “Plasma Conc Mean” value ([4]; 200 mg/kg 3x/wk, Day 28, Time 0 hr) of the same compound?
Answer: 731 ng/mL

Question: And the “Plasma Conc Mean” value ([4]; 200 mg/kg 3x/wk, Day 57, Time 0 hr)?
Answer: 665 ng/mL

Question: And the “plasma concentrations (exposure) on average” value ([4]; mice, 200 mg/kg dose, 3 times per week)?
Answer: 12000 to 14000 ng·h/mL

Question: And the IC50 [5]?
Answer: > 4000 nM

Question: For `CC/C(=C(/c1ccc(/C=C/C(=O)O)cc1)c1ccc2[nH]ncc2c1)c1ccc(F)cc1Cl` [GDC-0810], which IC50 [6] is on record?
Answer: 32 nM

Question: And the “patients with complete/near complete (>90%) suppression of FES uptake” value [7]?
Answer: 90 % of patients

Question: And the “Tumor growth response, MDA-MB-231 xenograft” value [8]?
Answer: did not exhibit any anti-tumor activity
